Assay results: US8815891B2, “Tricyclic derivative or pharmaceutically acceptable salts thereof, preparation method thereof, and pharmaceutical composition containing the same” (Je Il Pharmaceutical Co., Ltd., priority 2008, dated 2014)
Where a name gives a salt, the structure may show the parent alone. Read-outs that look alike come from different tables or passages of the source.

Tests used:
[1] = tested on: A549 cell line; test: Cell growth inhibition of cancer cell lines (SRB assay), A549; type: cell-based; conditions: for SN-38 PF50 / Temozolomide PF50: 2 μM compound; for SN-38 PF50: GI50 SN-38 alone / GI50 with compound; for Temozolomide PF50: GI50 temozolomide alone / GI50 with compound; for GI50: Homo sapiens, 72 hours
Protocol: (§1) The tests on cell growth inhibitory activity were performed with respect to A549 (US, ATCC), SK-OV-3 (Korea Research Institute of Chemical Technology; KRICT), HT-29 (US, ATCC), MCF-7 cell (US, ATCC), using Sulforhodamin-B <SRB> Assay (1989, US National Cancer Institute (NCI)) which was developed to measure the in vitro anti-cancer activity of the drug. […] The samples of the compounds of the Examples according to the present invention were used for the tests, and before the tests, the samples were dissolved in dimethylsulfoxide and diluted with the culture medium (RPMI 1640) to be used. The final concentration of the sample was varied in the range of 0.3˜100 μM. After the culture medium was removed from the 96 well plates, the diluted sample solution was added by 100 μl, and cultured in 37° C., 5% CO2 culture medium for 72 hours. The time zero (Tz) plates were collected at the time point of adding the sample. Upon completing the culture, the medium was removed from each well along with Tz plate, then cold 10% trichloroacetic acid (TCA) was added by 100 μl per well. The wells were left at 4° C. for 1 hour, so that the cells were fixed into the bottom of the plates. After the cells were fixed, the plates were rinsed with water five to six times to remove the remaining trichloroacetic acid solution, and moisture was completely dried at room temperature. The cells were dyed for 30 minutes by adding the dye solution in which 0.4% sulforhodamine-B was dissolved in 1% acetic acid solution, by 100 μl per dried wells. The above was rinsed again with 1% acetic acid solution five to six times to ensure that sulforhodamine-B which had not attached to the cells was removed. The plates were again dried at room temperature. 100 μl of 10 mM tris-buffer was then added to dissolve the dye, and the optical density (OD) at 520 nm was measured with the microplate reader. GI50 of the sample regarding cancer cell was calculated as explained below. Time zero (Tz), control value (C) and test value (T) were obtained, in which Tz corresponds to OD value of time at which the sample is applied and culture is started, C corresponds to OD value of the well which is cultured without treatment with the sample, and T corresponds to OD value of the well which is treated with the sample and then cultured. The degree of cell growth inhibition of the sample was measured using: If […] [Mathematical Formula 1]
(§2) Further, the ability of Examples 2, 42, 49, 52, 72, 74, 101 to increase growth inhibition effect of temozolomide and SN-38 at 2 μM was determined.

[2] = tested on: MCF-7 Cell line; test: Cell growth inhibition of cancer cell lines (SRB assay), MCF-7; type: cell-based; conditions: for SN-38 PF50 / Temozolomide PF50: 2 μM compound; for GI50: Homo sapiens, MCF7, 72 hours
Protocol: as §1, §2

[3] = tested on: HT-29 Cell line; test: Cell growth inhibition of cancer cell lines (SRB assay), HT-29; type: cell-based; conditions: for SN-38 PF50 / Temozolomide PF50: 2 μM compound; for GI50: Homo sapiens, 72 hours
Protocol: as §1, §2

[4] = target: PARP-1 enzyme (Homo sapiens (Human), UniProt P09874); test: Poly(ADP-ribose)polymerase [PARP-1] enzyme inhibitory activity (Trevigen PARP Assay kit); type: biochemical; conditions: read-out: PARP-1 Inhibitory activity IC50
Chain of PARP-1 enzyme (Homo sapiens (Human), UniProt P09874) (P09874 whole entry): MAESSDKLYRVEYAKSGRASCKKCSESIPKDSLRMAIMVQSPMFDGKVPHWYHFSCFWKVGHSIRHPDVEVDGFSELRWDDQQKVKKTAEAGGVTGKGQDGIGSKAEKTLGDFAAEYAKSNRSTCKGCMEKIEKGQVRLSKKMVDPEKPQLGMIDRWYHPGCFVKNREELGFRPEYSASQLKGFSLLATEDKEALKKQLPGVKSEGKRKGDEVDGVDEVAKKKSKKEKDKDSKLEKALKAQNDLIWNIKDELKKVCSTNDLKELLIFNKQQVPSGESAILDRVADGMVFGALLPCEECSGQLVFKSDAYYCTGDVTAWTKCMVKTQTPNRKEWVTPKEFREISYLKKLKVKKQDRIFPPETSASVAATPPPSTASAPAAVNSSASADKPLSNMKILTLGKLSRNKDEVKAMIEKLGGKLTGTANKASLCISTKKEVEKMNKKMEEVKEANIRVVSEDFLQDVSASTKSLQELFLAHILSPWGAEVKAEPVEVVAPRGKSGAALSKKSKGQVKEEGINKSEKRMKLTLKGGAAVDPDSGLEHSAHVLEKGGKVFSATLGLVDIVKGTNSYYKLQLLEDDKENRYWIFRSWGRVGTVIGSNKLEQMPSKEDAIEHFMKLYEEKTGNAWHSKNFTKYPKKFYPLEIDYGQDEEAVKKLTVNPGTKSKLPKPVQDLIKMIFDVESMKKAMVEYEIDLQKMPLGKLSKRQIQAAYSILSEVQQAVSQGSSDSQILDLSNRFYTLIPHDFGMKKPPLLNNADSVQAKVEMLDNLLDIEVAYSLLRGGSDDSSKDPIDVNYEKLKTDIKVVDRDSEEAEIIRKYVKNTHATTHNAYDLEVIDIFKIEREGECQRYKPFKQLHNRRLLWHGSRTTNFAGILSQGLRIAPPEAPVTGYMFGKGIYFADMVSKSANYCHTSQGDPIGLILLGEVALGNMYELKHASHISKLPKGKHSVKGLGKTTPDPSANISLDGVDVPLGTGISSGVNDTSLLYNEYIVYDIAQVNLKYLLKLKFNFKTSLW
Procedure, shortened: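 On histone-coated plates, PARP-1 (0.12 unit/well) reacted with compound for 30 min at 25 °C in a 2× cocktail of 1.95 mM NAD+, 50 μM biotinylated NAD+ and activated DNA (Tris pH 8.0, 25 mM MgCl2). Biotin-ribosylated histone was detected with streptavidin-HRP and TACS-Sapphire substrate, stopped with HCl and read at 450 nm.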

[5] = tested on: SK-OV-3 Cell line; test: Cell growth inhibition of cancer cell lines (SRB assay), SK-OV-3; type: cell-based; conditions: for SN-38 PF50 / Temozolomide PF50: 2 μM compound; for GI50: Homo sapiens, 72 hours
Protocol: as §1, §2

[6] = target: PARP-1 enzyme (Cricetulus griseus (Chinese hamster) (Cricetulus barabensis griseus), UniProt Q9R152); test: Intracellular PARP inhibitory activity (NAD(P)H released by MMS-treated CHO-K1 cells); type: cell-based
Chain of PARP-1 enzyme (Cricetulus griseus (Chinese hamster) (Cricetulus barabensis griseus), UniProt Q9R152) (Q9R152 whole entry): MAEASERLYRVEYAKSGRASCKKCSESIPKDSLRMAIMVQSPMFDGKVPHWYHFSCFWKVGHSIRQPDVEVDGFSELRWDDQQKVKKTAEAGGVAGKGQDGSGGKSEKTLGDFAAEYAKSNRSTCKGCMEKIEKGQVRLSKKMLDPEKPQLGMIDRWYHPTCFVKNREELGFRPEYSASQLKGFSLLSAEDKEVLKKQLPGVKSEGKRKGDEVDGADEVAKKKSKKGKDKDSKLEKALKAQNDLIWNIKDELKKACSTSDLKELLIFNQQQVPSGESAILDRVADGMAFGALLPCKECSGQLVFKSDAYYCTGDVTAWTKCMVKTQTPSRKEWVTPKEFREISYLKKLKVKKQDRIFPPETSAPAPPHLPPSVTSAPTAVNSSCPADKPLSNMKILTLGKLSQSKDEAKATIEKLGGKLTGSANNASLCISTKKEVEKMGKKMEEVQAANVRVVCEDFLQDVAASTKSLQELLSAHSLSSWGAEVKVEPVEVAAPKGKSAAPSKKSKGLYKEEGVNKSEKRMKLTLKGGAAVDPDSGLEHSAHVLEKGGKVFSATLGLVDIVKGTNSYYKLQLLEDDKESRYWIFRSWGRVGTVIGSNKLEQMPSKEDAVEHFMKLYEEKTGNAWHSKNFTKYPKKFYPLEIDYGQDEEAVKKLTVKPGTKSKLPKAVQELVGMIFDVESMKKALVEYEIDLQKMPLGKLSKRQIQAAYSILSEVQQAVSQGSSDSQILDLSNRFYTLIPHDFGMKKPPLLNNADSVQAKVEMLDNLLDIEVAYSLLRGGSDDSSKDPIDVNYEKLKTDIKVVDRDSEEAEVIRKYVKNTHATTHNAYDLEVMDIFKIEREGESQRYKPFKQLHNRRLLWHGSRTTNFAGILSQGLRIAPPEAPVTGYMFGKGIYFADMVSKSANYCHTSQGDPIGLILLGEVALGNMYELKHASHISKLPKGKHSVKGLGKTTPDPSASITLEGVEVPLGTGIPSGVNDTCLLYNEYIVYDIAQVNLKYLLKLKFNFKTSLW
Protocol: In order to verify the ability of the compounds of the present invention to inhibit the PARP-1 enzyme activity, the amount of NAD(P)H accumulated on cell culture medium was measured.
The Chinese hamster ovary cells (CHO-K1) were cultured in RPMI1640 culture medium containing 10% fetal bovine serum (FBS). The cultured CHO-K1 cells were seeded into 96 well plate by 2.9×10^3 cells/well, and cultured for 16 hours under culture condition of 37° C., 5% CO2. After the culture, the cells were treated with the compounds of the Examples at varying concentrations, and cultured at 37° C. for 2 hours. […] The amount of […] released to the culture medium 3, 4, 5 hours after the treatment with MMS was quantified at 450 nm using Wallac EnVision™ (PerkinElmer Oy, Turku, Finland). The transference numbers of the compounds at varying concentrations according to the present invention are the average values obtained from four wells, and the results were calculated using regression analysis.
The Chinese hamster ovary cells (CHO-K1) were treated with the compounds at varying concentration according to the present invention, and the amount of NAD(P)H released into the culture medium 4 hours after the MMS treatment was quantified.

[7] = PARP-1 enzyme, histone ribosylation, 450 nm

Structure (SMILES) | SN-38 PF50 [1] | Temozolomide PF50 [1] | GI50 [1] | SN-38 PF50 [2] | Temozolomide PF50 [2] | GI50 [2] | SN-38 PF50 [3] | Temozolomide PF50 [3] | GI50 [3] | IC50 [4] | SN-38 PF50 [5] | Temozolomide PF50 [5] | GI50 [5] | IC50 [6] | IC50 [4, 7]
COc1cc(CN(C)C)cc2[nH]c(=O)c3c(c12)NCCC3 [Example 72, 8-[(Dimethylamino)methyl]-10-methoxy-1,2,3,4-tetrahydrobenzo[h][1,6]naphthyridine-5(6H)-one dihydrochloride] | 3.8 | 3.4 | > 100 µM | 2.6 | 1.7 | 54 µM | 2.2 | >5.2 | > 100 µM | 0.08 µM | 1.8 | >10.2 | > 100 µM | 0.09 µM | –
CCOc1cc(CN2CCOCC2)cc2[nH]c(=O)c3c(c12)NCCC3 [Example 101, 10-Ethoxy-8-(morpholinomethyl)-1,2,3,4-tetrahydrobenzo[h][1,6]naphthyridine-5(6H)-one dihydrochloride] | 2.6 | 3.2 | 55 µM | 3.0 | 5.9 | 11 µM | 4.0 | >1.9 | 20 µM | – | 2.8 | >3.9 | 19 µM | 1.94 µM | 0.56 µM
CCN(CC)Cc1ccc2c3c(c(=O)[nH]c2c1)CCCN3 [Example 42, 8-[(Diethylamino)methyl]-1,2,3,4-tetrahydrobenzo[h][1,6]naphthyridine-5(6H)-one dihydrochloride] | 1.6 | 2.3 | > 100 µM | 1.6 | 1.6 | 75 µM | 2.1 | >1.4 | 81 µM | 0.22 µM | 1.6 | >2.1 | > 100 µM | 0.85 µM | –
COc1cccc2[nH]c(=O)c3c(c12)NCCC3.Cl [Example 2, 10-Methoxy-1,2,3,4-tetrahydrobenzo[h][1,6]naphthyridine-5(6H)-one hydrochloride] | 2.2 | 2.4 | 59 µM | 1.4 | 1.7 | 51 µM | 1.4 | >1.5 | 70 µM | – | 1.2 | >3.2 | 50 µM | 0.92 µM | 0.6 µM
O=c1[nH]c2ccc(OCCCCN3CCCCC3)cc2c2c1CCCN2 [Example 29, 9-[4-(Piperidine-1yl)butoxy]-1,2,3,4-tetrahydrobenzo[h][1,6]naphthyridine-5(6H)-one dihydrochloride] | 1.5 | 2.0 | > 100 µM | 2.2 | 2.1 | > 100 µM | 1.5 | >1.2 | 91 µM | 2.85 µM | 1.5 | >1.7 | > 100 µM | – | –
CNCc1ccc2c3c(c(=O)[nH]c2c1)CCCN3 [Example 52, 8-[(Methylamino)methyl]-1,2,3,4-tetrahydrobenzo[h][1,6]naphthyridine-5(6H)-one dihydrochloride] | 2.2 | 1.5 | > 100 µM | 1.1 | 1.5 | > 100 µM | 1.4 | >1.3 | 90 µM | 0.07 µM | 1.4 | >2.2 | > 100 µM | – | –
